Measurements published in paper PMC9230573 (Frontiers in Pharmacology, 2022).
Values joined by “and” are separate entries in the source; they are usually repeats but may differ in a detail not shown here. Equal entries are not always repeated. “Also recorded” adds a separate entry of the source. Where a SMILES comes first, the peptide text is derived from it. Bridges are numbered along the chain shown (N, C = ends).

Experiments:
rat PNL pain model = settings: in vivo
rat CCI pain model = settings: in vivo
[1] = test system: voltage-gated sodium channels in DRG neurons; format: cell-based, rat
[2] = test system: L-type (Cav1.2) calcium channels; format: cell-based
[3] = test system: GABABR-coupled Cav2.2 channels (human GABAB receptor R1 + R2 subunits and Cav2.2); format: cell-based; settings: SEM
[4] = test system: voltage-gated potassium channels in DRG neurons; format: cell-based, rat
rat α3β2 nAChR = rat α3β2 nAChR (Rattus norvegicus, UniProt P04757+P12390); assay: cell-based
locomotor activity = settings: rat, in vivo
[5] = test system: T-type (Cav3.2) calcium channels; format: cell-based

Sequence of rat α3β2 nAChR (P04757 26-499 limits assumed): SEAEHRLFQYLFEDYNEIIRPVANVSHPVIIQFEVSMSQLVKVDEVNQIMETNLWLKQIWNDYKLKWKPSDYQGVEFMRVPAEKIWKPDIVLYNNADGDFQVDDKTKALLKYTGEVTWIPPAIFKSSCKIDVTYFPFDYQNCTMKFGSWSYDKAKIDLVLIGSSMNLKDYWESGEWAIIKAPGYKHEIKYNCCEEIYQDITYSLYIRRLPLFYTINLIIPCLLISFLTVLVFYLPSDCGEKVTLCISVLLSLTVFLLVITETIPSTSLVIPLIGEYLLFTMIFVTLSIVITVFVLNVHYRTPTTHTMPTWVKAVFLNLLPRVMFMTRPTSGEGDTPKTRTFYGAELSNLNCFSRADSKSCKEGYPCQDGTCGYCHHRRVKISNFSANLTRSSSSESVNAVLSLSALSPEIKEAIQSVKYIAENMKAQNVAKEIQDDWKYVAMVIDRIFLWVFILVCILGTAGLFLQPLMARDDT
Sequence of rat α3β2 nAChR (P12390 25-500 limits assumed): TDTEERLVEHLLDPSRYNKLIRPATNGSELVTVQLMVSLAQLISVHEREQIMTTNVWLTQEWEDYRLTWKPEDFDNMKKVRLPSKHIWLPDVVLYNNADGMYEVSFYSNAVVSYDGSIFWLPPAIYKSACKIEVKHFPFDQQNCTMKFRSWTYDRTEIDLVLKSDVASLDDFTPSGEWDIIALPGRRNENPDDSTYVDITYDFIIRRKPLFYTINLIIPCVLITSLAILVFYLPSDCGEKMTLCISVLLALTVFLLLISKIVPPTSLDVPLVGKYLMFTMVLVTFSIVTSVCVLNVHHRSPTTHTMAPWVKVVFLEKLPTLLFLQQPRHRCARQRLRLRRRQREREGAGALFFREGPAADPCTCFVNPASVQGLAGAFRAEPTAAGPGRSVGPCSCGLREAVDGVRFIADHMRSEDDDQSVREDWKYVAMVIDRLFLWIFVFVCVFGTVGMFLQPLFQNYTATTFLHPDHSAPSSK

## Vc1.1 [reference compound]
Rat PNL pain model
  elevation value of the pain threshold: 7.4 g
  increased mechanical pressure threshold (elevation value of pain threshold): 71.2 g
Rat CCI pain model
  pain threshold elevation percentage: 44.3 ± 9.1% and 26.1 ± 10.0%

## CC[C@H](C)[C@@H]1NC(=O)[C@@H]2CCCN2C(=O)[C@@H]2CSSC[C@H](NC(=O)[C@@H](N)CC(N)=O)C(=O)N[C@@H](CSSC[C@@H](C(N)=O)NC(=O)[C@H](CC(N)=O)NC(=O)[C@H](Cc3ccccc3)NC(=O)[C@H](CCCNC(=N)N)NC(=O)[C@H](CO)NC(=O)[C@H](Cc3ccc(O)cc3)NC(=O)[C@H](CC(=O)O)NC1=O)C(=O)N[C@@H](CCSC)C(=O)N[C@@H](Cc1ccccc1)C(=O)N[C@@H](Cc1c[nH]cn1)C(=O)N[C@@H]([C@@H](C)O)C(=O)N2 [Vt1.27] (H-NCCMFHTCPIDYSRFNC-NH2; disulfide 2-8, 3-17)
[1]
  inhibition of voltage-gated sodium channels (in words): inactive; also recorded: did not significantly inhibit
[2]
  inhibition of L-type calcium channels (in words): did not significantly inhibit
[3]
  percent inhibition of IBa at GABABR-coupled Cav2.2 channels: 19 ± 2%
Rat PNL pain model
  elevation value of the pain threshold: 37.6 g
  pain threshold: 126.2 ± 9.16 g and 138.8 ± 23.6 g and 165.0 ± 21.4 g
[4]
  inhibition of voltage-gated potassium channels (in words): inactive; also recorded: did not significantly inhibit
Rat CCI pain model
  increase in pain threshold: 67.2 g and 40.0 g
  pain threshold elevation percentage: 56.4 ± 14.9% and 33.3 ± 15.3%
Rat α3β2 nAChR
  Hillslope: -0.484
  IC50: 1160 nM
Locomotor activity
  effect on locomotor activity (in words): did not affect locomotor activity
[5]
  inhibition of T-type calcium channels (in words): did not significantly inhibit
